Gastric irritancy, anti-inflammatory activity and ED50 data for two compounds are collected here from patent EP0032314A1, “Aroylpyrrole derivatives, processes for their preparation and their use” (BEECHAM GROUP PLC, priority 1980, dated 1981).

One data set relates to test animals. Particulars: in vivo.
The conditions of data set [1]: reported in J. Pharmacol, Exptl. Therap. 1973, 185, 127-138; cited from earlier work.
In data set [2] the test system is phenylquinone induced mouse writhing. Nature of the data set: phenylquinone induced mouse writhing test (analgesic activity). The class given is in vivo. Particulars: po. The method, then: Analgesic activity was determined using a conventional phenylquinone induced mouse writhing test.
In general terms: An intraperitoneal irritant provokes the stretching counted in writhing tests.

One may read the ED50 as the dose that gives a 50% effect, or the effect in half of the subjects. A high value points to a need for a large dose.

For `Cc1ccc(C(=O)c2ccc(CC(=O)O)n2C)cc1` [Tolmetin], in the data set on test animals, the gastric irritancy entry was “causes gastric irritancy”. Also, the anti-inflammatory activity entry in data set [1] is on record as “possess anti-inflammatory activity”. In the case of `CC(=O)CCc1cc(C)c(C(=O)c2ccc(Cl)cc2)n1C` [Example 1, 4-(1,4-dimethyl-p-chlorobenzoyl-2-pyrryl)butan-2-one], in data set [2], the 50% effect level (ED50) was put at a dose of 6.1 mg/kg.
